Results published in publication PMC12332266 (Frontiers in Pharmacology, 2025).
Where a name gives a salt, the structure may show the parent alone. Read-outs that look alike come from different tables or passages of the source.

Tests used:
[1] = test system: hiPSC-CM (iCell Cardiomyocytes^2); assay: RTCA CardioECR assessment (impedance and electrophysiology parameters)
Method: (§1) Culture media change was performed every 2 days.
After seeding on fibronectin-coated xCELLigence ePlates (Agilent Technologies, Inc. Santa Clara, CA, USA), iCell^2 CM were monitored continuously through impedance electrodes. The following impedance parameters were measured: Cell Index (CI, measure of cell “health” and monolayer integrity), beating rate (BR) and amplitude (CI Amplitude, magnitude of contraction). Electrophysiology-like parameters (Field Potential Duration (FPD), considered as a surrogate for QT in in vivo studies, and Spike Amplitude (SA), depolarization induced by Na^+ channel opening) were measured starting from day 4–6, following the monolayer formation. […] All RTCA CardioECR data were double normalized (DMSO control and the baseline) with no further statistical group comparison for the normalized parameters. The variability of the data within the treatment groups was assessed by standard deviation.

[2] = test system: hiPSC-CM (iCell Cardiomyocytes^2); assay: Intracellular miRNA expression by RT-qPCR in hiPSC-CM pellets after 72-hour treatment; settings: for fold induction at 0.1 µM / fold induction at 0.3 µM / fold induction at 1 µM / fold induction at 3 µM: Homo sapiens
Method: as §1
Total RNA was extracted from hiPSC-CM using the miRNeasy 96 Kit (Qiagen, Hilden, Germany) following the manufacturer’s recommendations. After the extraction, RNA purity was assessed by NanoDrop™ 8000 Spectrophotometer (Thermo Fisher Scientific Inc.). 5–10 ng/μL of RNA per sample were reverse transcribed and pre-amplified by using the TaqMan™ Advanced miRNA cDNA Synthesis Kit (Thermo Fisher Scientific Inc.). The synthesized cDNA was used for RT-qPCR with selected TaqMan™ assays (Thermo Fischer Scientific Inc.). RT-qPCR was carried out following the Applied Biosciences TaqMan miRNA expression assay protocol on a ViiA7 instrument (Thermo Fisher Scientific, Inc.). […] Therefore, to maximize the number of drugs and concentrations, explored in the same study, we pooled the triplicates for intracellular profiling of miRNAs. Therefore, no statistical analysis was performed on the data of miRNA profiling in the pellets of hiPSC-CM.
Following RTCA CardioECR assessment, hiPSC-CM cell pellets were collected, and total RNA was extracted and purified to investigate miRNAs upregulation by RT-qPCR. […] For the initial assessment of intracellular miRNAs in 12 different treatments, encompassing various drug classes, we used a panel of 17 miRNAs, which we selected from the publicly available data focusing mainly on in vitro models and structural cardiotoxicants (Supplementary Table S2).

[3] = ref extensive literature search, cited from earlier work
[4] = hiPSC-CM, 72-hour treatment, lowest concentration causing at least 20% change from baseline
[5] = 72 h, read-out: hsa-miR-7-5p fold change
[6] = 72 h, read-out: hsa-miR-29a-5p fold change
[7] = 72 h, read-out: hsa-miR-96-5p fold change
[8] = 72 h, read-out: hsa-miR-126-3p fold change
[9] = 72 h, read-out: hsa-miR-133b fold change
[10] = 72 h, read-out: hsa-miR-146b-5p fold change
[11] = 72 h, read-out: hsa-miR-182-5p fold change
[12] = 72 h, read-out: hsa-miR-185-3p fold change
[13] = 72 h, read-out: hsa-miR-187-3p fold change
[14] = 72 h, read-out: hsa-miR-208b-3p fold change
[15] = 72 h, read-out: hsa-miR-365a-5p fold change
[16] = 72 h, read-out: hsa-miR-[…] change
[17] = hiPSC-CM, 72-hour treatment, Supplementary Table 1
[18] = hiPSC-CM, 72-hour treatment, change from baseline

CC(=O)[C@]1(O)Cc2c(O)c3c(c(O)c2[C@@H](O[C@H]2C[C@H](N)[C@H](O)[C@H](C)O2)C1)C(=O)c1ccccc1C3=O [Idarubicin]
Cell index (CI) MEC [1, 4]: 0.1 µM | RTCA, MEC (CI) ([1]; hiPSC-CM, change ≥20%, Table 2): 0.1 µM (CI, BR) | Beating Rate MEC ([1]; human, 72 h): 0.1 µM | Beating rate (BR) MEC ([1]; human, 72 h): 0.1 µM | Cell Index MEC ([1]; human, 72 h): 0.1 µM | Contractility Amplitude MEC ([1]; human, 72 h): 1 µM | Field Potential Duration MEC ([1]; human, 72 h): 0.1 µM | RTCA, MEC (BR) ([1]; human, 72 h): 0.1 µM (CI, BR) | Spike Amplitude (SA) MEC ([1]; human, 72 h): 0.1 µM | miRNAs hiPSC-CM pellet, MEC overall [2]: 0.3 µM | miRNAs upregulated at the MEC overall (hiPSC-CM pellet) [2]: miR-96 -5p, miR-126-3p, miR-133b, miR-185-3p | fold induction at 0.1 µM [2, 5]: 4.5 | fold induction at 0.3 µM [2, 5]: 5.8 | fold induction at 1 µM [2, 5]: 3.5 | fold induction at 3 µM [2, 5]: 0.2 | fold induction at 0.1 µM [2, 6]: 1.2 | fold induction at 0.3 µM [2, 6]: 4.4 | fold induction at 1 µM [2, 6]: 1.2 | fold induction at 3 µM [2, 6]: 3 | fold induction at 0.1 µM [2, 7]: 9 | fold induction at 0.3 µM [2, 7]: 21.3 | fold induction at 1 µM [2, 7]: 53.4 | fold induction at 3 µM [2, 7]: 0.8 | fold induction at 0.1 µM [2, 8]: 1 | fold induction at 0.3 µM [2, 8]: 1.3 | fold induction at 1 µM [2, 8]: 0.7 | fold induction at 3 µM [2, 8]: 1.1 | fold induction at 0.1 µM [2, 9]: 0.5 | fold induction at 0.3 µM [2, 9]: 2.5 | fold induction at 1 µM [2, 9]: 1.2 | fold induction at 3 µM [2, 9]: 10.9 | fold induction at 0.1 µM [2, 10]: 3.5 | fold induction at 0.3 µM [2, 10]: 7.3 | fold induction at 1 µM [2, 10]: 2 | fold induction at 3 µM [2, 10]: 3.4 | fold induction at 0.1 µM [2, 11]: 0.03 | fold induction at 0.3 µM [2, 11]: 0.1 | fold induction at 1 µM [2, 11]: 0.4 | fold induction at 3 µM [2, 11]: 0.7 | fold induction at 0.1 µM [2, 12]: 1.6 | fold induction at 0.3 µM [2, 12]: 1.3 | fold induction at 1 µM [2, 12]: 1 | fold induction at 0.1 µM [2, 13]: 9 | fold induction at 0.3 µM [2, 13]: 8.5 | fold induction at 1 µM [2, 13]: 2.9 | fold induction at 3 µM [2, 13]: 1.9 | fold induction at 0.1 µM [2, 14]: 0.5 | fold induction at 0.3 µM [2, 14]: 0.6 | fold induction at 1 µM [2, 14]: 0.8 | fold induction at 3 µM [2, 14]: 2 | fold induction at 0.1 µM [2, 15]: 3.5 | fold induction at 0.3 µM [2, 15]: 2.1 | fold induction at 1 µM [2, 15]: 1.1 | fold induction at 3 µM [2, 15]: 3.4 | fold induction at 0.1 µM [2, 16]: 1 | fold induction at 0.3 µM [2, 16]: 1.1 | fold induction at 1 µM [2, 16]: 0.7 | fold induction at 3 µM [2, 16]: 3.4 | Cmax total ([3]; Supplementary Table 1): 120 to 3800 nM | Cmax total ([3]; Table 1): 120 to 3800 nM

CC(C)C[C@H](NC(=O)CNC(=O)c1cc(Cl)ccc1Cl)B1OC(=O)C(CC(=O)O)(CC(=O)O)O1 [Ixazomib Citrate]
Contractility Amplitude magnitude of effect at MEC ([1]; hiPSC-CM, 72-hour treatment): -94% | Field Potential Duration magnitude of effect at MEC ([1]; hiPSC-CM, 72-hour treatment): -35% | Spike Amplitude (SA) magnitude of effect at MEC ([1]; hiPSC-CM, 72-hour treatment): +75% | Beating Rate magnitude of effect at MEC [1, 17]: +33% | Cell Index magnitude of effect at MEC [1, 17]: -37% | Field Potential Duration MEC ([1]; hiPSC-CM, 72-hour treatment, at least 10% change): 0.03 µM | Contractility Amplitude MEC ([1]; hiPSC-CM, 72-hour treatment, at least 20% change): 0.1 µM | Beating Rate MEC ([1]; hiPSC-CM, 72-hour treatment, at least 20% change, Supplementary Table 1): 0.03 µM | Spike Amplitude (SA) MEC ([1]; hiPSC-CM, 72-hour treatment, at least 40% change): 0.03 µM | Beating rate (BR) magnitude of effect at MEC [1, 18]: +33% | Cell index (CI) magnitude of effect at MEC [1, 18]: −37% | Beating rate (BR) MEC [1, 4]: 0.03 µM | Cell index (CI) MEC [1, 4]: 0.3 µM | RTCA, MEC (BR) ([1]; hiPSC-CM, change ≥20%, Table 2): 0.03 µM | RTCA, MEC (CI) ([1]; hiPSC-CM, change ≥20%, Table 2): 0.3 µM | hsa-miR-7-5p fold change, intracellular ([2]; 0.03 µM, 72 h): 2.0 | hsa-miR-29a-5p fold change, intracellular ([2]; 0.03 µM, 72 h): 1.5 | hsa-miR-96-5p fold change, intracellular ([2]; 0.03 µM, 72 h): 8.8 | hsa-miR-126-3p fold change, intracellular ([2]; 0.03 µM, 72 h): 1.7 | hsa-miR-133b fold change, intracellular ([2]; 0.03 µM, 72 h): 1.2 | hsa-miR-146b-5p fold change, intracellular ([2]; 0.03 µM, 72 h): 1.0 | hsa-miR-182-5p fold change, intracellular ([2]; 0.03 µM, 72 h): 1.4 | hsa-miR-185-3p fold change, intracellular ([2]; 0.03 µM, 72 h): 1.0 | hsa-miR-187-3p fold change, intracellular ([2]; 0.03 µM, 72 h): 1.1 | hsa-miR-208b-3p fold change, intracellular ([2]; 0.03 µM, 72 h): 0.9 | hsa-miR-7-5p fold change, intracellular ([2]; 0.1 µM, 72 h): 0.3 | hsa-miR-29a-5p fold change, intracellular ([2]; 0.1 µM, 72 h): 2.0 | hsa-miR-96-5p fold change, intracellular ([2]; 0.1 µM, 72 h): 6.4 | hsa-miR-126-3p fold change, intracellular ([2]; 0.1 µM, 72 h): 1.8 | hsa-miR-133b fold change, intracellular ([2]; 0.1 µM, 72 h): 25.3 | hsa-miR-146b-5p fold change, intracellular ([2]; 0.1 µM, 72 h): 1.9 | hsa-miR-182-5p fold change, intracellular ([2]; 0.1 µM, 72 h): 34.9 | hsa-miR-185-3p fold change, intracellular ([2]; 0.1 µM, 72 h): 0.4 | hsa-miR-187-3p fold change, intracellular ([2]; 0.1 µM, 72 h): 3.1 | hsa-miR-208b-3p fold change, intracellular ([2]; 0.1 µM, 72 h): 0.0 | hsa-miR-365a-5p fold change, intracellular ([2]; 0.1 µM, 72 h): 44.3 | hsa-miR-7-5p fold change, intracellular ([2]; 0.3 µM, 72 h): 6.9 | hsa-miR-29a-5p fold change, intracellular ([2]; 0.3 µM, 72 h): 1.7 | hsa-miR-96-5p fold change, intracellular ([2]; 0.3 µM, 72 h): 13.0 | hsa-miR-126-3p fold change, intracellular ([2]; 0.3 µM, 72 h): 2.7 | hsa-miR-133b fold change, intracellular ([2]; 0.3 µM, 72 h): 0.4 | hsa-miR-146b-5p fold change, intracellular ([2]; 0.3 µM, 72 h): 7.1 | hsa-miR-182-5p fold change, intracellular ([2]; 0.3 µM, 72 h): 8.5 | hsa-miR-185-3p fold change, intracellular ([2]; 0.3 µM, 72 h): 2.0 | hsa-miR-187-3p fold change, intracellular ([2]; 0.3 µM, 72 h): 1.6 | hsa-miR-208b-3p fold change, intracellular ([2]; 0.3 µM, 72 h): 0.8 | hsa-miR-365a-5p fold change, intracellular ([2]; 0.3 µM, 72 h): 2.5 | hsa-miR-7-5p fold change, intracellular ([2]; 1 µM, 72 h): 12.6 | hsa-miR-29a-5p fold change, intracellular ([2]; 1 µM, 72 h): 4.7 | hsa-miR-96-5p fold change, intracellular ([2]; 1 µM, 72 h): 13.4 | hsa-miR-126-3p fold change, intracellular ([2]; 1 µM, 72 h): 3.1 | hsa-miR-133b fold change, intracellular ([2]; 1 µM, 72 h): 0.6 | hsa-miR-146b-5p fold change, intracellular ([2]; 1 µM, 72 h): 3.2 | hsa-miR-182-5p fold change, intracellular ([2]; 1 µM, 72 h): 5.6 | hsa-miR-185-3p fold change, intracellular ([2]; 1 µM, 72 h): 0.9 | hsa-miR-187-3p fold change, intracellular ([2]; 1 µM, 72 h): 2.4 | hsa-miR-208b-3p fold change, intracellular ([2]; 1 µM, 72 h): 0.9 | intracellular miRNA upregulation in hiPSC-CM, in words ([2]; 72-hour treatment, four concentrations per drug): highly upregulated hsa-miR-133b, hsa-miR-182-5pand hsa-miR-365a-5p | miRNAs upregulated at the MEC overall (hiPSC-CM pellet) ([2]; fold change ≥2, 72 h): miR-126-3p, miR-29a-5p, miR-7-5p, miR-96-5p | miRNAs hiPSC-CM pellet, MEC overall ([2]; lowest concentration tested which produced miRNA upregulation (fold change ≥2), 72 h): 0.03 µM | Cmax total ([3]; Supplementary Table 1): 213 nM | Cmax total ([3]; Table 1): 210 nM

CS(=O)(=O)CCNCc1ccc(-c2ccc3ncnc(Nc4ccc(OCc5cccc(F)c5)c(Cl)c4)c3c2)o1 [Lapatinib]
RTCA, MEC (CI) ([1]; hiPSC-CM, change ≥20%, Table 2): ND (ND – not detected, magnitude of change was lower than 20% for CI/BR) | Field Potential Duration MEC ([1]; human, 72 h): 0.1 µM | Spike Amplitude (SA) MEC ([1]; human, 72 h): 0.1 µM | miRNAs hiPSC-CM pellet, MEC overall [2]: 0.1 µM | miRNAs upregulated at the MEC overall (hiPSC-CM pellet) [2]: miR-126-3p, miR-146b-5p, miR-182-5p, miR-187-3p | Cmax total ([3]; Supplementary Table 1): 4180 nM | Cmax total ([3]; Table 1): 4180 nM
